Experimental findings from PubChem BioAssay (NCI) are described below.

What all share (experiment): DTP human tumour cell line panel, 48 h
In test [1] the test system is A498 renal.
In test [2] the test system is LOX IMVI melanoma.
For test [3], the system named is MCF7 breast.
Test [4] concerns OVCAR-5 ovarian.
Test [5] deals with PC-3 prostate.
The subject of test [6] is SK-MEL-2 melanoma.
The subject of test [7] is SK-MEL-5 melanoma.
Test [8] relates to SK-OV-3 ovarian.
In test [9] the test system is TK-10 renal.
Test [10] relates to UO-31 renal.

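Five compound concentrations were applied to cells in 96-well plates for 48 hours; endpoints were derived by simple linear interpolation of the resulting dose-response curve. Abbreviation: GI50, concentration required for 50% inhibition of growth. TGI is the concentration that stops growth completely.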 A value given as a limit tells only on which side of the number the result lay.

On to `COC(=O)/C=C/c1cc(OC)c2c(c1)[C@@H](C(=O)OC)[C@H](c1ccc(OC)c(OC)c1)O2`, for which the GI50 in test [1] is 1.06 µM; in test [2], 0.771 µM; in test [3], 0.388 µM; in [4], 5.23 µM; in [5], 2.11 µM; in [6] it was 2.8 µM. The GI50 in test [7] is 0.901 µM; in test [8] it was 6.13 µM; in test [9], 62.7 µM; in test [10], 3.4 µM. Also, the TGI is 33 µM in test [1]; greater than 100 µM in [2]; 14.2 µM in test [3]; greater than 100 µM in test [4]; greater than 100 µM in test [5]; greater than 100 µM in test [6]. Also, the TGI in [7], in test [8], in test [9] and in [10] was greater than 100 µM in each case.

Take `Cc1cnc2n(c1=O)Cc1ccccc1CO2`: the GI50 in [1] is 19.5 µM; in [2], 14.6 µM; in test [3] it was 10.6 µM; in test [4], 27.4 µM; in test [5], 18.7 µM; in test [6], 0.568 µM. The GI50 in test [7] is 15.4 µM; in test [8], 41 µM; in test [9] it was 20.9 µM; in test [10], 18.2 µM. Besides, the TGI in test [1] was 45.4 µM; in test [2], 31.9 µM; in [3] it was 28.1 µM; in test [4], greater than 92.4 µM; in test [5] it was 43.7 µM; in [6] it was 2.04 µM. Moreover, the TGI is 29.5 µM in test [7], greater than 100 µM in test [8], 49.4 µM in [9] and 44.5 µM in test [10].

For `COc1ccc(/C=N/C2=C(C#N)C(c3ccccc3)c3ccc4ccccc4c3O2)cc1` (centres undefined), the GI50 in test [1] is 0.213 µM; in test [2], 0.587 µM; in test [3], 0.425 µM; in [4], 0.885 µM; in [5], 0.393 µM; in test [6] it was 0.545 µM. Further, the GI50 in test [7] was 0.336 µM; in test [8], 0.539 µM; in test [9], 26 µM; in test [10], 0.368 µM. For the same compound, the TGI in test [1] was 0.785 µM; in test [2], greater than 51.4 µM; in test [3], greater than 100 µM; in test [4], greater than 100 µM; in [5] it was greater than 100 µM; in test [6], greater than 100 µM. Moreover, the TGI in test [7] was 7.95 µM; in test [8] it was greater than 100 µM; in test [9], greater than 100 µM; in [10] it was greater than 100 µM.

As for `CCc1cc(Cc2cc(CC)cc(C(C)(C)C)c2O)c(O)c(C(C)(C)C)c1`, the GI50 is 1.76 µM in test [1]; 3.27 µM in test [2]; 2.49 µM in test [3]; 9.69 µM in [4]; 3.86 µM in test [5]; 2.63 µM in test [6]. Further, the GI50 was 3.63 µM in test [7], 3.81 µM in test [8], 3.03 µM in [9] and 2.79 µM in [10]. Further, the TGI in [1] was found to be 5.39 µM; in test [2], 12 µM; in test [3] it was 7.74 µM; in test [4], 21.4 µM; in [5] it was 14.7 µM; in [6] it was 7.08 µM. Also, the TGI in test [7] amounted to 12.7 µM; in test [8], 13.2 µM; in [9] it was 9.41 µM; in [10], 11.7 µM.

On to `COc1ccc2nc3c(cc2c1)C(=O)CC(C(F)(F)F)C3` (centres undefined), for which the GI50 was 0.278 µM in test [1]; 3.54 µM in test [2]; 3.33 µM in [3]; 5.56 µM in [4]; 1.08 µM in test [5]; 0.847 µM in test [6]. In addition, the GI50 was 0.545 µM in test [7], 4.23 µM in [8], greater than 84.1 µM in test [9] and 1.36 µM in test [10]. In addition, the TGI in test [1] was 1.55 µM; in test [2], greater than 100 µM; in [3] it was greater than 100 µM; in [4], greater than 100 µM; in test [5] it was greater than 100 µM; in test [6], greater than 100 µM. Also, the TGI in test [7] was 9.75 µM; in test [8], greater than 100 µM; in test [9], greater than 100 µM; in test [10] it was greater than 100 µM.

On to `Nc1c(C(=O)Nc2cccc3ccccc23)sc2nc3c(cc12)CCCCCC3`, for which the GI50 is 2.48 µM in test [1]; 1.96 µM in test [2]; 0.302 µM in test [3]; 2.7 µM in test [4]; 1.79 µM in test [5]; 17 µM in test [6]. Besides, the GI50 was 0.929 µM in test [7], 1.95 µM in [8], greater than 50 µM in test [9] and 5.6 µM in [10]. Also, the TGI was 42.5 µM in [1]; greater than 50 µM in test [2]; greater than 50 µM in test [3]; greater than 50 µM in test [4]; greater than 50 µM in test [5]; greater than 50 µM in test [6]. In addition, the TGI in [7] is 6.85 µM; in test [8], greater than 50 µM; in [9], greater than 50 µM; in test [10], greater than 50 µM.

As for `c1ccc2c(c1)-c1nc3ccccc3cc1C2N1CCOCC1` (centres undefined), the TGI in test [1], in [2], in [3], in [4], in test [5] and in test [6] was greater than 100 µM in each case. In addition, the TGI in test [7], in [8] and in test [9] was greater than 100 µM throughout.

Consider `c1ccc(Oc2cnc3ccccc3n2)cc1`, for which the GI50 was 14.7 µM in test [1]; greater than 100 µM in test [2]; greater than 100 µM in test [3]; greater than 100 µM in test [4]; greater than 100 µM in test [5]; greater than 100 µM in [6]. Moreover, the GI50 in test [7] is 46.3 µM; in test [8], greater than 100 µM; in test [9] it was 53.9 µM; in test [10], 39.1 µM. For the same compound, the TGI in [1], in test [2], in test [3], in [4], in test [5] and in [6] was greater than 100 µM throughout. The TGI in test [7], in [8], in test [9] and in test [10] was greater than 100 µM in each case.
